Reference: US20200377561A1, “ANTIMICROBIAL PEPTIDES AND METHODS OF TREATING GRAM-NEGATIVE PATHOGEN INFECTIONS: POLAR AND NON-POLAR FACE ANALOGS” (THE REGENTS OF THE UNIVERSITY OF COLORADO, a body corporate, priority 2017, published 2020)
Read-outs that look alike come from different tables or passages of the source. Peptide text beside a SMILES is read from it.

What was measured:
[1] = test system: Acinetobacter baumannii NCTC 13420; assay type: cell-based
Protocol: (§1) Bacterial strains were acquired from the American Type Culture Collection (ATCC, Virginia, USA) and the National Collection of Type Cultures (NCTC, Public Health England, Salisbury, UK). Minimum Inhibitory Concentration (MIC) of peptides versus gram-negative strains-Acinetobacter baumannii NCTC 13420, and Pseudomonas aeruginosa ATCC 27853 and gram-positive strain Staphylococcus aureus ATCC 29213, were determined by broth microdilution as per the guidelines of the Clinical and Laboratory Standards Institute (“Methods for Dilution Antimicrobial Susceptibility Tests for Bacteria That Grow Aerobically”; Approved Standard-Ninth Edition. CLSI document M07-A9, 2012). Peptides were dissolved in sterile distilled water, which was also used as the drug-free vehicle control when determining peptide MICs. Prior to use in the MIC protocol, bacterial strains were grown on Mueller Hinton agar at 37° C. in an ambient atmosphere. […] A fixed inoculum of the test microorganism (5×10^5 cells/mL) is also added to the plate. The MIC is determined as the lowest concentration of compound that inhibits visible bacterial growth following incubation at 37° C. for 16-20 hours. A difference in MIC of two-fold between experimental replicates is considered to be within the normal variability of this protocol.

[2] = test system: Staphylococcus aureus ATCC 29213; assay type: cell-based
Protocol: as §1

[3] = test system: Pseudomonas aeruginosa ATCC 27853; assay type: cell-based
Protocol: as §1

[4] = Peptide hydrophobicity by RP-HPLC retention; assay type: physicochemical; conditions: for tR (relative hydrophobicity by RP-HPLC): Zorbax SB-300 C8, 0.25% B/min from 10% B, 0.3 ml/min, 30° C.; for ΔtR (Lys): retention time difference to the Lys13/Lys16 parent peptide
Description: Retention behavior in RP-HPLC is an excellent method to represent overall peptide hydrophobicity. Retention times of peptides are highly sensitive to the conformational status of the peptides upon interaction with the hydrophobic environment of the column matrix^17,26. The non-polar faces of amphipathic alpha-helical and amphipathic cyclic beta-sheet peptides represent a preferred binding domain for interaction with the hydrophobic matrix of the reversed-phase column^27. In this study, the observed peptide hydrophobicity was determined by RP-HPLC retention time as described below and are relative hydrophobicities because they are dependent on the TFA concentration and organic solvent in the mobile phase, gradient rate, temperature, flow rate and the column used. Analytical Purification by Reversed-phase Chromatography: Analytical RP-HPLC: Column: Zorbax SB-300 C8 (150×2.1 mm ID; 5-μm particle size; 300 Å pore size). Conditions: linear AB gradient (0.25% B/min from 10% B) at a flow-rate of 0.3 ml/min, where Eluent A is 0.2% aq. TFA and Eluent B is 0.18% TFA in acetonitrile; 30° C.

[5] = test system: Human erythrocytes; test: Haemolysis assay using human blood; assay type: cell-based
Protocol: To determine the extent of haemolytic activity (the ability to lyse red blood cells) in test peptides, a haemolysis assay was conducted using human blood (BioIVT, West Sussex, UK). Human erythrocytes were exposed to a single fixed concentration or a range of concentrations as to determine the % haemolysis (fixed concentration) or the concentration at which 50% haemolysis occurred (HC50), respectively. Prior to the assay, whole human blood was repeatedly washed in phosphate buffered saline (PBS) under cooled conditions to remove the buffy coat, plasma and cell debris. Washed erythrocytes were diluted as to achieve 1×10^8 cells/mL in PBS. Prepared human erythrocyte samples were combined with peptide at a single fixed concentration of 128 μg/mL, or a range of concentrations (two-fold dilution series) from 1000-31.25 μg/mL. Positive and negative controls containing 2% (v/v) Triton X-100 and PBS alone, respectively, were also prepared. Samples were incubated at 37° C. for 1 hour and then centrifuged to collect intact erythrocytes. Haemoglobin release was determined by recording the optical density of the supernatant at 540 nm. Optical density values were transformed to a percentage of the positive control. Results were recorded as a percentage haemolysis at 128 μg/mL, or by plotting the percentage haemolysis versus concentration and extrapolating the HC50 using linear regression analysis (Table 2 above)
The therapeutic index is a widely-accepted parameter to represent the specificity of antimicrobial peptides for prokaryotic versus eukaryotic cells. It is calculated by the ratio of hemolytic activity and antimicrobial activity (MIC) (Table 2 above); thus, larger values of therapeutic index indicate greater specificity for prokaryotic cells. With the peptides used in this study the inventors used the HC50/MIC ratio value to calculate the therapeutic index.

[6] = test system: Acinetobacter baumannii NCTC 13420; assay type: cell-based; conditions: CA-MHB supplemented with 20% human serum (v/v)
Protocol: Bacterial strains were acquired from the American Type Culture Collection (ATCC, Virginia, USA) and the National Collection of Type Cultures (NCTC, Public Health England, Salisbury, UK). Minimum Inhibitory Concentration (MIC) of peptides versus gram-negative strains-Acinetobacter baumannii NCTC 13420, and Pseudomonas aeruginosa ATCC 27853 and gram-positive strain Staphylococcus aureus ATCC 29213, were determined by broth microdilution as per the guidelines of the Clinical and Laboratory Standards Institute (“Methods for Dilution Antimicrobial Susceptibility Tests for Bacteria That Grow Aerobically”; Approved Standard-Ninth Edition. CLSI document M07-A9, 2012). Peptides were dissolved in sterile distilled water, which was also used as the drug-free vehicle control when determining peptide MICs. Prior to use in the MIC protocol, bacterial strains were grown on Mueller Hinton agar at 37° C. in an ambient atmosphere. […] A fixed inoculum of the test microorganism (5×10^5 cells/mL) is also added to the plate. The MIC is determined as the lowest concentration of compound that inhibits visible bacterial growth following incubation at 37° C. for 16-20 hours. A difference in MIC of two-fold between experimental replicates is considered to be within the normal variability of this protocol. […]

[7] = cation-adjusted Mueller Hinton broth, 37° C., 16-20 hours

SMILES | Antimicrobial Activity MIC A. baumannii NCTC13420 ([1]; NCTC 13420) | S. Aureus ATCC22213 MIC ([2]; ATCC 29213) | P. aeruginosa ATCC27853 MIC ([3]; ATCC 27853) | tR (relative hydrophobicity by RP-HPLC) [4] | ΔtR (Lys) [4] | Haemolysis HC50 ([5]; red cells of human, 1 h) | Antimicrobial Activity MIC A. baumannii NCTC13420 plus 20% SERUM [6] | Antimicrobial Activity MIC A. baumannii NCTC13420 [1, 7] | S. Aureus ATCC22213 MIC [2, 7] | P. aeruginosa ATCC27853 MIC [3, 7] | Haemolysis HC50 ([5]; human erythrocytes, 37° C., 1 hour)
CC(=O)N[C@H](CCCCN)C(=O)N[C@H](CC(C)C)C(=O)N[C@H](CCCCN)C(=O)N[C@H](CCCCN)C(=O)N[C@H](CC(C)C)C(=O)N[C@H](CC(C)C)C(=O)N[C@H](CCCCN)C(=O)N[C@H](CCCCN)C(=O)N[C@H](CC(C)C)C(=O)N[C@H](CO)C(=O)N[C@H](CO)C(=O)N[C@H](C)C(=O)N[C@H](CCCCN)C(=O)N[C@H](CO)C(=O)N[C@H](CO)C(=O)N[C@H](CCCCN)C(=O)N[C@H](CC(C)C)C(=O)N[C@H](CO)C(=O)N[C@@H](C(=O)N[C@H](CC(C)C)C(=O)N[C@H](CC(C)C)C(=O)N[C@H](CCCCN)C(=O)N[C@H](CCCCN)C(=O)N[C@H](CC(C)C)C(=O)N[C@H](CCCCN)C(=O)N[C@H](CCCCN)C(N)=O)[C@H](C)O [compound 3] (HELM PEPTIDE1{[ac].[dK].[dL].[dK].[dK].[dL].[dL].[dK].[dK].[dL].[dS].[dS].[dA].[dK].[dS].[dS].[dK].[dL].[dS].[dT].[dL].[dL].[dK].[dK].[dL].[dK].[dK].[am]}$$$$V2.0) | 2 µg/mL | 64 µg/mL | 4 µg/mL | 87.37 min |  | >2000 µg/mL |  |  |  |  | 
CC(=O)N[C@H](CCCCN)C(=O)N[C@H](CC(C)C)C(=O)N[C@H](CCCCN)C(=O)N[C@H](CCCCN)C(=O)N[C@H](CC(C)C)C(=O)N[C@H](CC(C)C)C(=O)N[C@H](CCCCN)C(=O)N[C@H](CCCCN)C(=O)N[C@H](CC(C)C)C(=O)N[C@H](CCCCN)C(=O)N[C@H](CO)C(=O)N[C@H](C)C(=O)N[C@H](CCCCN)C(=O)N[C@H](CO)C(=O)N[C@H](CO)C(=O)N[C@H](CCCCN)C(=O)N[C@H](CC(C)C)C(=O)N[C@H](CO)C(=O)N[C@@H](C(=O)N[C@H](CC(C)C)C(=O)N[C@H](CC(C)C)C(=O)N[C@H](CO)C(=O)N[C@H](CCCCN)C(=O)N[C@H](CC(C)C)C(=O)N[C@H](CCCCN)C(=O)N[C@H](CCCCN)C(N)=O)[C@H](C)O [compound 6] (HELM PEPTIDE1{[ac].[dK].[dL].[dK].[dK].[dL].[dL].[dK].[dK].[dL].[dK].[dS].[dA].[dK].[dS].[dS].[dK].[dL].[dS].[dT].[dL].[dL].[dS].[dK].[dL].[dK].[dK].[am]}$$$$V2.0) | 2 µg/mL | 128 µg/mL | 2 µg/mL |  |  | >2000 µg/mL |  |  |  |  | 
CC(=O)N[C@H](CCCCN)C(=O)N[C@H](CC(C)C)C(=O)N[C@H](CCCCN)C(=O)N[C@H](CCCCN)C(=O)N[C@H](CC(C)C)C(=O)N[C@H](CC(C)C)C(=O)N[C@H](CCCCN)C(=O)N[C@H](CCCCN)C(=O)N[C@H](CC(C)C)C(=O)N[C@H](CO)C(=O)N[C@H](CO)C(=O)N[C@H](C)C(=O)N[C@H](CCCCN)C(=O)N[C@H](CO)C(=O)N[C@H](CO)C(=O)N[C@H](CCCCN)C(=O)N[C@H](CC(C)C)C(=O)N[C@H](CO)C(=O)N[C@H](CO)C(=O)N[C@H](CC(C)C)C(=O)N[C@H](CC(C)C)C(=O)N[C@H](CCCCN)C(=O)N[C@H](CCCCN)C(=O)N[C@H](CC(C)C)C(=O)N[C@H](CCCCN)C(=O)N[C@H](CCCCN)C(N)=O [compound 24] (HELM PEPTIDE1{[ac].[dK].[dL].[dK].[dK].[dL].[dL].[dK].[dK].[dL].[dS].[dS].[dA].[dK].[dS].[dS].[dK].[dL].[dS].[dS].[dL].[dL].[dK].[dK].[dL].[dK].[dK].[am]}$$$$V2.0) |  |  |  |  |  |  | 2 µg/mL | 1 µg/mL | 64 µg/mL | 2 µg/mL | >2000 µg/mL

Further lines, with some results ahead:

Antimicrobial Activity MIC A. baumannii NCTC13420 ([1]; NCTC 13420) | S. Aureus ATCC22213 MIC ([2]; ATCC 29213) | P. aeruginosa ATCC27853 MIC ([3]; ATCC 27853) | tR (relative hydrophobicity by RP-HPLC) [4] | ΔtR (Lys) [4] | SMILES | Haemolysis HC50 ([5]; red cells of human, 1 h) | Antimicrobial Activity MIC A. baumannii NCTC13420 plus 20% SERUM [6] | Antimicrobial Activity MIC A. baumannii NCTC13420 [1, 7] | S. Aureus ATCC22213 MIC [2, 7] | P. aeruginosa ATCC27853 MIC [3, 7] | Haemolysis HC50 ([5]; human erythrocytes, 37° C., 1 hour)
2 µg/mL |  | 4 µg/mL | 91.57 min | 2.94 min | CC(=O)N[C@H](C)C(=O)N[C@H](CC(C)C)C(=O)N[C@H](CCCCN)C(=O)N[C@H](CCCCN)C(=O)N[C@H](CC(C)C)C(=O)N[C@H](CC(C)C)C(=O)N[C@H](CCCCN)C(=O)N[C@H](CCCCN)C(=O)N[C@H](CC(C)C)C(=O)N[C@H](CO)C(=O)N[C@H](CO)C(=O)N[C@H](C)C(=O)N[C@H](CCN)C(=O)N[C@H](CO)C(=O)N[C@H](CO)C(=O)N[C@H](CCN)C(=O)N[C@H](CC(C)C)C(=O)N[C@H](CO)C(=O)N[C@@H](C(=O)N[C@H](CC(C)C)C(=O)N[C@H](CC(C)C)C(=O)N[C@H](CCCCN)C(=O)N[C@H](CCCCN)C(=O)N[C@H](CC(C)C)C(=O)N[C@H](CCCCN)C(=O)N[C@H](CCCCN)C(N)=O)[C@H](C)O [compound 20] (HELM PEPTIDE1{[ac].[dA].[dL].[dK].[dK].[dL].[dL].[dK].[dK].[dL].[dS].[dS].[dA].[NCC[C@@H](N[*:1])C(=O)[*:2]].[dS].[dS].[NCC[C@@H](N[*:1])C(=O)[*:2]].[dL].[dS].[dT].[dL].[dL].[dK].[dK].[dL].[dK].[dK].[am]}$$$$V2.0) | >1000 µg/mL |  |  |  |  | 
2 µg/mL |  | 4 µg/mL | 94.92 min | 0.41 min | CC(=O)N[C@H](C)C(=O)N[C@H](CC(C)C)C(=O)N[C@H](CCCCN)C(=O)N[C@H](CCCCN)C(=O)N[C@H](CC(C)C)C(=O)N[C@H](CC(C)C)C(=O)N[C@H](CCCCN)C(=O)N[C@H](CCCCN)C(=O)N[C@H](CC(C)C)C(=O)N[C@H](CO)C(=O)N[C@H](CO)C(=O)N[C@H](C)C(=O)N[C@H](CN)C(=O)N[C@H](CO)C(=O)N[C@H](CO)C(=O)N[C@H](CN)C(=O)N[C@H](CC(C)C)C(=O)N[C@H](CO)C(=O)N[C@@H](C(=O)N[C@H](CC(C)C)C(=O)N[C@H](CC(C)C)C(=O)N[C@H](CCCCN)C(=O)N[C@H](CCCCN)C(=O)N[C@H](CC(C)C)C(=O)N[C@H](CCCCN)C(=O)N[C@H](CCCCN)C(N)=O)[C@H](C)O [compound 21] (HELM PEPTIDE1{[ac].[dA].[dL].[dK].[dK].[dL].[dL].[dK].[dK].[dL].[dS].[dS].[dA].[NC[C@@H](N[*:1])C(=O)[*:2]].[dS].[dS].[NC[C@@H](N[*:1])C(=O)[*:2]].[dL].[dS].[dT].[dL].[dL].[dK].[dK].[dL].[dK].[dK].[am]}$$$$V2.0) | >1000 µg/mL |  |  |  |  | 
